Test results published in patent publication US9303012B2, “Pyridine-2-amides useful as CB2 agonists” (Hoffmann-La Roche Inc., priority 2012, dated 2016).

Experiments:
human CB2 receptors = human CB2 receptors (Homo sapiens (Human), UniProt P34972); experiment: functional cAMP assay, CHO cells expressing human CB2 receptors; format: cell-based
Protocol: (§1) CHO cells expressing human CB1 or CB2 receptors are seeded 17-24 hours prior to the experiment 50.000 cells per well in a black 96 well plate with flat clear bottom (Corning Costar #3904) in DMEM (Invitrogen No. 31331), 1×HT supplement, with 10% fetal calf serum and incubated at 5% CO2 and 37° C. in a humidified incubator. The growth medium was exchanged with Krebs Ringer Bicarbonate buffer with 1 mM IBMX and incubated at 30° C. for 30 min. Compounds were added to a final assay volume of 100 μl and incubated for 30 min at 30° C. Using the cAMP-Nano-TRF detection kit the assay (Roche Diagnostics) was stopped by the addition of 50 μl lysis reagent (Tris, NaCl, 1.5% Triton X100, 2.5% NP40, 10% NaN3) and 50 μl detection solutions (20 μM mAb Alexa700-cAMP 1:1, and 48 μM Ruthenium-2-AHA-cAMP) and shaken for 2 h at room temperature. The time-resolved energy transfer is measured by a TRF reader (Evotec Technologies GmbH), equipped with a ND:YAG laser as excitation source. The plate is measured twice with the excitation at 355 nm and at the emission with a delay of 100 ns and a gate of 100 ns, total exposure time 10 s at 730 (bandwidth 30 nm) or 645 nm (bandwidth 75 nm), respectively. The FRET signal is calculated as follows: FRET=T730-Alexa730-P(T645-B645) with P=Ru730-B730/Ru645-B645, where T730 is the test well measured at 730 nM, T645 is the test well measured at 645 nm, B730 and B645 are the buffer controls at 730 nm and 645 nm, respectively. cAMP content is determined from the function of a standard curve spanning from 10 μM to 0.13 nM cAMP.
(§2) EC50 values were determined using Activity Base analysis (ID Business Solution, Limited). The EC50 values for a wide range of cannabinoid agonists generated from this assay were in agreement with the values published in the scientific literature.

human CB1 receptors = human CB1 receptors (Homo sapiens (Human), UniProt P21554); experiment: functional cAMP assay, CHO cells expressing human CB1 receptors; format: cell-based
human CB1 receptors, sequence (P21554 whole entry): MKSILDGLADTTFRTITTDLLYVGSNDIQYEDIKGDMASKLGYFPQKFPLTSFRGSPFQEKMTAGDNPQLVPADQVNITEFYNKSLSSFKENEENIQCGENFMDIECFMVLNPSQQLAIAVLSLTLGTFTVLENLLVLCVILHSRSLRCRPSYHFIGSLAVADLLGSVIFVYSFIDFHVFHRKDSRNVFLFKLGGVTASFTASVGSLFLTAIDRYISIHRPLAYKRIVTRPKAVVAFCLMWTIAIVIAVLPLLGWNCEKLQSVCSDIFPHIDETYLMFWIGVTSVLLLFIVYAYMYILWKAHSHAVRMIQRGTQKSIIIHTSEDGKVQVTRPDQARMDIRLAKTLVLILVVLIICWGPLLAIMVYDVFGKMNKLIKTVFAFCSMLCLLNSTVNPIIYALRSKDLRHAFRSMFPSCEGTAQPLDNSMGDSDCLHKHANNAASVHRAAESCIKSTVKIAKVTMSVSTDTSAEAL
Protocol: as §1, §2

human CB2 receptors, sequence (P34972 whole entry): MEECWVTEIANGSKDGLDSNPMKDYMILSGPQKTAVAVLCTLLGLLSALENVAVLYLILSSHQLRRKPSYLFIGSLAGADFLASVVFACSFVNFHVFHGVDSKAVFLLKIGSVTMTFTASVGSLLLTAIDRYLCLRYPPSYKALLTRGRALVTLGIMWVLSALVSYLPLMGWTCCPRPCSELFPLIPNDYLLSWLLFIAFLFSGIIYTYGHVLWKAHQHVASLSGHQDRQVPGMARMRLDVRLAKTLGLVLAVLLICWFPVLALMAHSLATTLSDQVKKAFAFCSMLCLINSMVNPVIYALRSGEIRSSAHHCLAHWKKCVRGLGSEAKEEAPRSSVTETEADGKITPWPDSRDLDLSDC

Structure (SMILES): CC1(C)C[C@@H](C(N)=O)N(C(=O)c2ccc(N3CC(F)(F)C3)c(OCC3CC3)n2)C1 [Example 78, (−)-1-[6-Cyclopropylmethoxy-5-(3,3-difluoro-azetidin-1-yl)-pyridine-2-carbonyl]-4,4-dimethyl-pyrrolidine-2-carboxylic acid amide]
- EC50 (human CB2 receptors): 1.2 nM
- EC50 (human CB1 receptors): > 10000 nM

Structure (SMILES): NC(=O)[C@H]1N(C(=O)c2ccc(N3CC(F)(F)C3)c(OCC3CC3)n2)CCC12CC2 [Example 152, (+)-5-[6-(Cyclopropylmethoxy)-5-(3,3-difluoroazetidin-1-yl)pyridine-2-carbonyl]-5-azaspiro[2.4]heptane-4-carboxamide]
- EC50 (human CB2 receptors): 338 nM
- EC50 (human CB1 receptors): > 10000 nM

Structure (SMILES): CC1(C)CCCN1C(=O)c1ccc(C2CC2)c(OCC(F)(F)C(F)(F)F)n1 [Example 84, [5-Cyclopropyl-6-(2,2,3,3,3-pentafluoro-propoxy)-pyridin-2-yl]-(2,2-dimethyl-pyrrolidin-1-yl)-methanone]
- EC50 (human CB2 receptors): 18.9 nM
- EC50 (human CB1 receptors): > 10000 nM

Structure (SMILES): NC(=O)C1CS(=O)(=O)CN1C(=O)c1ccc(N2CC(F)(F)C2)c(OCC2CC2)n1 (stereo not drawn) [Example 125, 3-[6-(Cyclopropylmethoxy)-5-(3,3-difluoroazetidin-1-yl)pyridine-2-carbonyl]-1,1-dioxo-1,3-thiazolidine-4-carboxamide]
- EC50 (human CB2 receptors): 9.5 nM
- EC50 (human CB1 receptors): > 10000 nM

Structure (SMILES): NC(=O)C1CSCN1C(=O)c1ccc(C2CC2)c(OCC2CC2)n1 (stereo not drawn) [Example 96, 3-(5-Cyclopropyl-6-cyclopropylmethoxy-pyridine-2-carbonyl)-thiazolidine-4-carboxylic acid amide]
- EC50 (human CB2 receptors): 103 nM
- EC50 (human CB1 receptors): > 10000 nM

Structure (SMILES): CC1(C)C[C@@H](C(N)=O)N(C(=O)c2ccc(C3CC3)c(OCC3CC3)n2)C1 [Example 95, (−)-1-(5-Cyclopropyl-6-cyclopropylmethoxy-pyridine-2-carbonyl)-4,4-dimethyl-pyrrolidine-2-carboxylic acid amide]
- EC50 (human CB2 receptors): 10.4 nM
- EC50 (human CB1 receptors): > 10000 nM

Structure (SMILES): C[C@]1(O)C[C@@H](C(N)=O)N(C(=O)c2ccc(N3CC(F)(F)C3)c(OCC3CC3)n2)C1 [Example 140, (+)-(2S)-1-[6-(Cyclopropylmethoxy)-5-(3,3-difluoroazetidin-1-yl)pyridine-2-carbonyl]-4-hydroxy-4-methylpyrrolidine-2-carboxamide]
- EC50 (human CB2 receptors): 40.6 nM
- EC50 (human CB1 receptors): > 10000 nM

Structure (SMILES): CN(CC1CC1)C(=O)c1ccc(N2CC(F)(F)C2)c(OCC2CC2)n1 [Example 105, 6-Cyclopropylmethoxy-5-(3,3-difluoro-azetidin-1-yl)-pyridine-2-carboxylic acid cyclopropylmethyl-methyl-amide]
- EC50 (human CB2 receptors): 218 nM
- EC50 (human CB1 receptors): > 10000 nM

Structure (SMILES): CC(C)(C)N(CC(N)=O)C(=O)c1ccc(N2CC(F)(F)C2)c(OCC2CC2)n1 [Example 35, 6-Cyclopropylmethoxy-5-(3,3-difluoro-azetidin-1-yl)-pyridine-2-carboxylic acid tert-butyl-carbamoylmethyl-amide]
- EC50 (human CB2 receptors): 183 nM
- EC50 (human CB1 receptors): > 10000 nM

Structure (SMILES): O=C(c1ccc(C2CC2)c(OCC2CC2)n1)N1CCC(CO)(C(F)(F)F)C1 (stereo not drawn) [Example 142, [5-Cyclopropyl-6-(cyclopropylmethoxy)pyridin-2-yl]-[3-(hydroxymethyl)-3-(trifluoromethyl)pyrrolidin-1-yl]methanone]
- EC50 (human CB2 receptors): 26.3 nM
- EC50 (human CB1 receptors): > 10000 nM

Structure (SMILES): NC(=O)[C@H]1CS(=O)(=O)CN1C(=O)c1ccc(C2CC2)c(OCC2CC2)n1 [Example 117, (+)-3-(5-Cyclopropyl-6-cyclopropylmethoxy-pyridine-2-carbonyl)-1,1-dioxo-1λ^6-thiazolidine-4-carboxylic acid amide]
- EC50 (human CB2 receptors): 485 nM
- EC50 (human CB1 receptors): > 10000 nM

Structure (SMILES): CN(C(=O)c1ccc(C2CC2)c(OCC2CC2)n1)C(C)(C)C [Example 3, 5-Cyclopropyl-6-cyclopropylmethoxy-pyridine-2-carboxylic acid tert-butyl-methyl-amide]
- EC50 (human CB2 receptors): 7.2 nM
- EC50 (human CB1 receptors): > 10000 nM

Structure (SMILES): CC1(C)CCN(C(=O)c2ccc(C3CC3)c(Cc3ccc(F)cc3)n2)CC1 [Example 42, [5-Cyclopropyl-6-(4-fluoro-benzyl)-pyridin-2-yl]-(4,4-dimethyl-piperidin-1-yl)-methanone]
- EC50 (human CB2 receptors): 9 nM
- EC50 (human CB1 receptors): > 10000 nM

Structure (SMILES): CC1(C)CC(C(N)=O)N(C(=O)c2ccc(C3CC3)c(OCC3CC3)n2)C1 (stereo not drawn) [Example 90, 1-(5-Cyclopropyl-6-cyclopropylmethoxy-pyridine-2-carbonyl)-4,4-dimethyl-pyrrolidine-2-carboxylic acid amide]
- EC50 (human CB2 receptors): 14.8 nM
- EC50 (human CB1 receptors): > 10000 nM

Structure (SMILES): CC1(O)C[C@@H](C(N)=O)N(C(=O)c2ccc(N3CC(F)(F)C3)c(OCC3CC3)n2)C1 (stereo partly drawn) [Example 132, (2S)-1-[6-(Cyclopropylmethoxy)-5-(3,3-difluoroazetidin-1-yl)pyridine-2-carbonyl]-4-hydroxy-4-methylpyrrolidine-2-carboxamide]
- EC50 (human CB2 receptors): 30.1 nM
- EC50 (human CB1 receptors): > 10000 nM

Structure (SMILES): Cc1nc([C@H](CC2CC2)N(C)C(=O)c2ccc(N3CC(F)(F)C3)c(OCC3CC3)n2)no1 [Example 32, 6-Cyclopropylmethoxy-5-(3,3-difluoro-azetidin-1-yl)-pyridine-2-carboxylic acid [(S)-2-cyclopropyl-1-(5-methyl-[1,2,4]oxadiazol-3-yl)-ethyl]-methyl-amide]
- EC50 (human CB2 receptors): 256 nM
- EC50 (human CB1 receptors): > 10000 nM

Structure (SMILES): CC1(O)CCN(C(=O)c2ccc(N3CC(F)(F)C3)c(OCC3CC3)n2)CC1 [Example 61, [6-Cyclopropylmethoxy-5-(3,3-difluoro-azetidin-1-yl)-pyridin-2-yl]-(4-hydroxy-4-methyl-piperidin-1-yl)-methanone]
- EC50 (human CB2 receptors): 391 nM
- EC50 (human CB1 receptors): > 10000 nM

Structure (SMILES): CC1(C)C[C@@H]2C[C@@](C)(CN2C(=O)c2ccc(N3CC(F)(F)C3)c(OCC3CC3)n2)C1 [Example 45, [6-Cyclopropylmethoxy-5-(3,3-difluoro-azetidin-1-yl)-pyridin-2-yl]-((1S,5R)-1,3,3-trimethyl-6-aza-bicyclo[3.2.1]oct-6-yl)-methanone]
- EC50 (human CB2 receptors): 6.8 nM
- EC50 (human CB1 receptors): > 10000 nM

Structure (SMILES): CC(C)(C)N(Cc1ccccc1)C(=O)c1ccc(N2CC(F)(F)C2)c(OCC2CC2)n1 [Example 25, 6-Cyclopropylmethoxy-5-(3,3-difluoro-azetidin-1-yl)-pyridine-2-carboxylic acid benzyl-tert-butyl-amide]
- EC50 (human CB2 receptors): 37 nM
- EC50 (human CB1 receptors): > 10000 nM

Structure (SMILES): CN(C(=O)c1ccc(N2CC(F)(F)C2)c(OCC2CC2)n1)C1(C(F)(F)F)CC1 [Example 16, 6-Cyclopropylmethoxy-5-(3,3-difluoro-azetidin-1-yl)-pyridine-2-carboxylic acid methyl-(1-trifluoromethyl-cyclopropyl)-amide]
- EC50 (human CB2 receptors): 8 nM
- EC50 (human CB1 receptors): > 10000 nM

Structure (SMILES): NC(=O)[C@@H]1CS(=O)(=O)CN1C(=O)c1ccc(N2CC(F)(F)C2)c(OCC2CC2)n1 [Example 127, (−)-3-[6-(Cyclopropylmethoxy)-5-(3,3-difluoroazetidin-1-yl)pyridine-2-carbonyl]-1,1-dioxo-1,3-thiazolidine-4-carboxamide]
- EC50 (human CB2 receptors): 3.4 nM
- EC50 (human CB1 receptors): > 10000 nM

Structure (SMILES): COC[C@H]1CCCN1C(=O)c1ccc(N2CC(F)(F)C2)c(OCC2CC2)n1 [Example 46, [6-Cyclopropylmethoxy-5-(3,3-difluoro-azetidin-1-yl)-pyridin-2-yl]-((R)-2-methoxymethyl-pyrrolidin-1-yl)-methanone]
- EC50 (human CB2 receptors): 360 nM
- EC50 (human CB1 receptors): > 10000 nM

Structure (SMILES): NC(=O)C1CS(=O)(=O)CN1C(=O)c1ccc(C2(F)CCC2)c(OCC2CC2)n1 (stereo not drawn) [Example 133, 3-[6-(Cyclopropylmethoxy)-5-(1-fluorocyclobutyl)pyridine-2-carbonyl]-1,1-dioxo-1,3-thiazolidine-4-carboxamide]
- EC50 (human CB2 receptors): 10.2 nM
- EC50 (human CB1 receptors): > 10000 nM

Structure (SMILES): Cc1cn(C)nc1N(C)C(=O)c1ccc(N2CC(F)(F)C2)c(OCC2CC2)n1 [Example 54, 6-Cyclopropylmethoxy-5-(3,3-difluoro-azetidin-1-yl)-pyridine-2-carboxylic acid (1,4-dimethyl-1H-pyrazol-3-yl)-methyl-amide]
- EC50 (human CB2 receptors): 462 nM
- EC50 (human CB1 receptors): > 10000 nM

Structure (SMILES): O=C(c1ccc(N2CC(F)(F)C2)c(OCC2CC2)n1)N1CCC2(CC(O)CO2)C1 (stereo not drawn) [Example 82, [6-Cyclopropylmethoxy-5-(3,3-difluoro-azetidin-1-yl)-pyridin-2-yl]-(3-hydroxy-1-oxa-7-aza-spiro[4.4]non-7-yl)-methanone]
- EC50 (human CB2 receptors): 356 nM
- EC50 (human CB1 receptors): > 10000 nM

Structure (SMILES): O=C(c1ccc(N2CC(F)(F)C2)c(OCC2CC2)n1)N1CCC2(CCCO2)C1 (stereo not drawn) [Example 100, [6-Cyclopropylmethoxy-5-(3,3-difluoro-azetidin-1-yl)-pyridin-2-yl]-(1-oxa-7-aza-spiro[4.4]non-7-yl)-methanone]
- EC50 (human CB2 receptors): 20.8 nM
- EC50 (human CB1 receptors): > 10000 nM

Structure (SMILES): CN(C(=O)c1ccc(N2CC(F)(F)C2)c(OCC2CC2)n1)c1ccccc1 [Example 52, 6-Cyclopropylmethoxy-5-(3,3-difluoro-azetidin-1-yl)-pyridine-2-carboxylic acid methyl-phenyl-amide]
- EC50 (human CB2 receptors): 645 nM
- EC50 (human CB1 receptors): > 10000 nM
